One assay has as its system C32 human melanoma cells. Kind of assay: cell viability in the C32 cell-based assay (Viability, C32 IC50). The conditions noted are these: concentration causing 50% cell death, values greater than 10 represent a lack of cell death. In short, it runs like this:
(§1)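 Both lines undergo the phenotypic GM3 assay, and viability is recorded from that same cell-based run.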

Assay [1] addresses T1, glucosylceramide synthase (Homo sapiens, UniProt Q16739).
T1 construct: Microsomes were isolated from A375 human melanoma cells; endogenous in cells; host or cells: A375 human melanoma cells (microsomal fraction, 100,000 g pellet)
T1 sequence (Q16739 1-394): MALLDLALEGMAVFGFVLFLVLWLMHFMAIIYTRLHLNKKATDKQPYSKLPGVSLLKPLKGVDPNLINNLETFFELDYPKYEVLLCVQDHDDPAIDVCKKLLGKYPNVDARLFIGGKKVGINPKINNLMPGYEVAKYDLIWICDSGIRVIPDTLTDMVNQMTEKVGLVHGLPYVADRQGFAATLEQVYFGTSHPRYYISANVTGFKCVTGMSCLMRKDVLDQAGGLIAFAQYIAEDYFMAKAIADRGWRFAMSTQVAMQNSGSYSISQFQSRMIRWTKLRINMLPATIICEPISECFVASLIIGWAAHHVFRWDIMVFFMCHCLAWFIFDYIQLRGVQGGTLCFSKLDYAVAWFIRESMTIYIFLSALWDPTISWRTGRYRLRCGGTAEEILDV
Kind of assay: microsomal assay measuring conversion of ceramide to glucosylceramide by HPLC (GCS IC50). In kind it is biochemical. The conditions noted are these: concentration causing 50% inhibition of glucosylceramide synthase activity. In short, it runs like this: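 Microsomal preparation assayed for glucosylceramide synthase by direct HPLC measurement of ceramide conversion to glucosylceramide. GCS IC50 is the compound concentration giving 50% inhibition of enzyme activity.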

Assay [2] has as its system GM3 expression on the cell surface, C32 human melanoma cells. In words: cell based phenotypic assay, cell surface GM3 by antibody mediated immunofluorescence, C32 (GM3 C32 IC50). As to conditions: Homo sapiens, 50% inhibition of GM3 expression on the cell surface. In short, it runs like this:
(§2)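 B16 mouse and C32 human melanoma cells; cell-surface GM3 measured by antibody-mediated immunofluorescence, giving IC50.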

In a further assay the test system is B16 mouse melanoma cells. In words: cell viability in the B16 cell-based assay (Viability, B16 IC50). In short, it runs like this:
as §1

The subject of assay [3] is GM3 expression on the cell surface, B16 mouse melanoma cells. Kind of assay: cell based phenotypic assay, cell surface GM3 by antibody mediated immunofluorescence, B16 (GM3 B16 IC50). The conditions noted are these: Mus musculus, 50% inhibition of GM3 expression on the cell surface. In short, it runs like this:
as §2

[4] abbreviates: Homo sapiens, C32, C32 cells, read-out: Viability, C32 IC50.
Setting [5] is: C32 human melanoma cells, read-out: GM3 C32 IC50.
Setting [6] is: Mus musculus, B16, B16 cells, concentration causing 50% cell death, values greater than 10 represent a lack of cell death, read-out: Viability, B16 IC50.
The mark [7] stands for this setting: B16 mouse melanoma cells, read-out: GM3 B16 IC50.
Where [8] appears, read: Homo sapiens, C32, read-out: Viability, C32 IC50, C32 cells.
Where [9] appears, read: read-out: GM3 C32 IC50, C32 human melanoma cells.
The mark [10] stands for this setting: Mus musculus, B16, read-out: Viability, B16 IC50.
The mark [11] stands for this setting: read-out: GM3 B16 IC50, B16 mouse melanoma cells.
Setting [12] is: read-out: Viability, C32 IC50, C32 cells.
Setting [13] is: read-out: Viability, B16 IC50, B16 cells, concentration causing 50% cell death, values greater than 10 represent a lack of cell death.

Where two headings read alike, the source gives them in different places. Where only a bound is given, the exact number is not on record here.

`COCCCc1ccc(-c2ccc(C3(NC(=O)OC4CCN5CCC4CC5)CC3)cc2)cc1` (stereo not drawn) [Example 212, 1-Azabicyclo[3.2.2]nonan-4-yl (1-(4′-(3-methoxypropyl)-[1,1′-biphenyl]-4-yl)cyclopropyl)carbamate]: the half-inhibitory concentration (IC50) in the assay with C32 human melanoma cells (setting [4]) is no less than 10000 nM; in assay [1] it was 3.85 nM; in assay [2] (setting [5]), 2.53 nM; with B16 mouse melanoma cells (setting [6]), 6360 nM; in assay [3] (setting [7]), 47.9 nM.

In the case of `COCCCc1ccc(-c2ccc(C3(NC(=O)NC4(C)CCN5CCC4CC5)CC3)cc2)cc1` (stereo not drawn) [Example 213, 1-(1-(4′-(3-Methoxypropyl)-[1,1′-biphenyl]-4-yl)cyclopropyl)-3-(4-methyl-1-azabicyclo[3.2.2]nonan-4-yl)urea], the IC50 in the assay on C32 human melanoma cells (setting [4]) is no less than 10000 nM; in assay [1], 1.12 nM; in assay [2] (setting [5]) it was 0.35 nM; with B16 mouse melanoma cells (setting [6]), 9220 nM; in assay [3] (setting [7]) it was 5.9 nM.

As for `COCCCc1ccc(-c2ccc(C3(NC(=O)NC4(C)CN5CCC4CC5)CC3)cc2)cc1` (stereo not drawn) [Example 214, 1-(1-(4′-(3-Methoxypropyl)-[1,1′-biphenyl]-4-yl)cyclopropyl)-3-(3-methylquinuclidin-3-yl)urea], the IC50 in the assay on C32 human melanoma cells (setting [4]) was no less than 10000 nM; in assay [1], 3.29 nM; in assay [2] (setting [5]), 1.26 nM; in the assay with B16 mouse melanoma cells (setting [6]) it was no less than 10000 nM; in assay [3] (setting [7]) it was 32.9 nM.

For `CCC1(NC(=O)NC2(c3ccc(-c4ccc(CCCOC)cc4)cc3)CC2)CN2CCC1CC2` (stereo not drawn) [Example 215, 1-(3-Ethylquinuclidin-3-yl)-3-(1-(4′-(3-methoxypropyl)-[1,1′-biphenyl]-4-yl)cyclopropyl)urea], the IC50 in the assay with C32 human melanoma cells (setting [4]) was no less than 10000 nM; in assay [1] it was 2.48 nM; in assay [2] (setting [5]), 0.542 nM; in the assay with B16 mouse melanoma cells (setting [6]), 7550 nM; in assay [3] (setting [7]), 16.2 nM.

Consider `O=C(NC1(c2ccc(-c3ccc(COCc4cccnc4)cc3)cc2)CC1)OC1CN2CCC1CC2` (stereo not drawn) [Example 216, Quinuclidin-3-yl (1-(4′-((pyridin-3-ylmethoxy)methyl)-[1,1′-biphenyl]-4-yl)cyclopropyl)carbamate], for which the IC50 in the assay on C32 human melanoma cells (setting [8]) is no less than 10000 nM; in assay [1], 9.33 nM; in assay [2] (setting [9]), 11.1 nM; in the assay on B16 mouse melanoma cells (setting [10]), 7940 nM; in assay [3] (setting [11]), 201 nM.

As for `CCC1(NC(=O)NC2(c3ccc(-c4ccc(COCc5cccnc5)cc4)cc3)CC2)CN2CCC1CC2` (stereo not drawn) [Example 217, 1-(3-Ethylquinuclidin-3-yl)-3-(1-(4′-((pyridin-3-ylmethoxy)methyl)-[1,1′-biphenyl]-4-yl)cyclopropyl)urea], the IC50 in the assay with C32 human melanoma cells (setting [4]) is no less than 10000 nM; in assay [1] it was 13.3 nM; in assay [2] (setting [5]), 4.02 nM; in the assay with B16 mouse melanoma cells (setting [6]) it was no less than 10000 nM; in assay [3] (setting [7]), 168 nM.

On to `CCCC1(NC(=O)NC2(c3ccc(-c4ccc(COCc5cccnc5)cc4)cc3)CC2)CN2CCC1CC2` (stereo not drawn) [Example 218, 1-(3-Propylquinuclidin-3-yl)-3-(1-(4′-((pyridin-3-ylmethoxy)methyl)-[1,1′-biphenyl]-4-yl)cyclopropyl)urea], for which the IC50 with C32 human melanoma cells (setting [4]) was no less than 10000 nM; in assay [1], 11 nM; in assay [2] (setting [5]), 2.97 nM; with B16 mouse melanoma cells (setting [6]), 7950 nM; in assay [3] (setting [7]), 80.9 nM.

With `O=C(NC1(c2ccc(-c3ccc(COCc4cncnc4)cc3)cc2)CC1)OC1CN2CCC1CC2` (stereo not drawn) [Example 219, Quinuclidin-3-yl (1-(4′-((pyrimidin-5-ylmethoxy)methyl)-[1,1′-biphenyl]-4-yl)cyclopropyl)carbamate], the half-inhibitory concentration (IC50) in the assay with C32 human melanoma cells (setting [8]) was no less than 10000 nM; in assay [1] it was 46.6 nM; in assay [2] (setting [9]), 20.9 nM; in the assay with B16 mouse melanoma cells (setting [10]) it was no less than 10000 nM; in assay [3] (setting [11]) it was 118 nM.

`CCC1(NC(=O)NC2(c3ccc(-c4ccc(COCc5cncnc5)cc4)cc3)CC2)CN2CCC1CC2` (stereo not drawn) [Example 220, 1-(3-Ethylquinuclidin-3-yl)-3-(1-(4′-((pyrimidin-5-ylmethoxy)methyl)-[1,1′-biphenyl]-4-yl)cyclopropyl)urea]: the half-inhibitory concentration (IC50) was 3160 nM with C32 human melanoma cells (setting [4]); 51.6 nM in assay [1]; 6.06 nM in assay [2] (setting [5]); no less than 10000 nM in the assay on B16 mouse melanoma cells (setting [6]); 114 nM in assay [3] (setting [7]).

As for `O=C(NC1(c2ccc(-c3ccc(COCc4cncnc4)cc3)cc2)CC1)OC1CCN2CCC1CC2` (stereo not drawn) [Example 221, 1-Azabicyclo[3.2.2]nonan-4-yl (1-(4′-((pyrimidin-5-ylmethoxy)methyl)-[1,1′-biphenyl]-4-yl)cyclopropyl)carbamate], the half-maximal inhibitory concentration (IC50) with C32 human melanoma cells (setting [4]) is no less than 10000 nM; in assay [1], 52.1 nM; in assay [2] (setting [5]) it was 21.1 nM; in the assay with B16 mouse melanoma cells (setting [6]) it was no less than 10000 nM; in assay [3] (setting [7]) it was 99.2 nM.

With `COCCCc1ccc(-c2ccc(C(C)(C)NC(=O)NC3(C)CN4CCC3CC4)cc2)cc1` (stereo not drawn) [Example 222, 1-(2-(4′-(3-Methoxypropyl)-[1,1′-biphenyl]-4-yl)propan-2-yl)-3-(3-methylquinuclidin-3-yl)urea], the 50% inhibitory concentration (IC50) in the assay on C32 human melanoma cells (setting [4]) is no less than 10000 nM; in assay [1], 1.7 nM; in assay [2] (setting [5]), 0.758 nM; in the assay with B16 mouse melanoma cells (setting [6]), no less than 10000 nM; in assay [3] (setting [7]), 30.7 nM.

Consider `CC(C)(NC(=O)OC1CN2CCC1CC2)c1ccc(-c2ccc(CO)cc2)cc1` (stereo not drawn) [Example 223, Quinuclidin-3-yl (2-(4′-(hydroxymethyl)-[1,1′-biphenyl]-4-yl)propan-2-yl)carbamate], for which the IC50 was no less than 10000 nM with C32 human melanoma cells (setting [12]); 454 nM in assay [1]; 21.6 nM in assay [2] (setting [9]); no less than 10000 nM in the assay on B16 mouse melanoma cells (setting [13]); 881 nM in assay [3] (setting [11]).

For `CCCC1(NC(=O)NC(C)(C)c2ccc(-c3ccc(CCO)cc3)cc2)CN2CCC1CC2` (stereo not drawn) [Example 224, 1-(2-(4′-(2-Hydroxyethyl)-[1,1′-biphenyl]-4-yl)propan-2-yl)-3-(3-propylquinuclidin-3-yl)urea], the 50% inhibitory concentration (IC50) is no less than 10000 nM in the assay on C32 human melanoma cells (setting [4]); 20.2 nM in assay [1]; 1.6 nM in assay [2] (setting [5]); no less than 10000 nM with B16 mouse melanoma cells (setting [6]); 64.3 nM in assay [3] (setting [7]).

For the compound `CCC1(NC(=O)NC(C)(C)c2ccc(-c3ccc(CCO)cc3)cc2)CN2CCC1CC2` (stereo not drawn) [Example 225, 1-(3-Ethylquinuclidin-3-yl)-3-(2-(4′-(2-hydroxyethyl)-[1,1′-biphenyl]-4-yl)propan-2-yl)urea], the half-maximal inhibitory concentration (IC50) is no less than 10000 nM in the assay with C32 human melanoma cells (setting [4]); 29.4 nM in assay [1]; 1.92 nM in assay [2] (setting [5]); no less than 10000 nM in the assay with B16 mouse melanoma cells (setting [6]); 229 nM in assay [3] (setting [7]).

Turning to `CC(C)(NC(=O)OC1CN2CCC1CC2)c1ccc(-c2ccc(CCO)cc2)cc1` (stereo not drawn) [Example 226, Quinuclidin-3-yl (2-(4′-(2-hydroxyethyl)-[1,1′-biphenyl]-4-yl)propan-2-yl)carbamate], the 50% inhibitory concentration (IC50) with C32 human melanoma cells (setting [12]) was no less than 10000 nM; in assay [1] it was 148 nM; in assay [2] (setting [9]), 22.3 nM; in the assay with B16 mouse melanoma cells (setting [13]) it was no less than 10000 nM; in assay [3] (setting [11]) it was 656 nM.

Consider `CC(C)(NC(=O)OC1CN2CCC1CC2)c1ccc(-c2ccc(CCc3c[nH]nn3)cc2)cc1` (stereo not drawn) [Example 227, Quinuclidin-3-yl (2-(4′-(2-(1H-1,2,3-triazol-4-yl)ethyl)-[1,1′-biphenyl]-4-yl)propan-2-yl)carbamate], for which the IC50 with C32 human melanoma cells (setting [8]) is 1000 nM; in assay [1], 27 nM; in assay [2] (setting [9]), 10.4 nM; in the assay on B16 mouse melanoma cells (setting [10]), no less than 10000 nM; in assay [3] (setting [11]), 122 nM.

`CC(C)(NC(=O)OC1CCN2CCC1CC2)c1ccc(-c2ccc(CCc3c[nH]nn3)cc2)cc1` (stereo not drawn) [Example 228, 1-Azabicyclo[3.2.2]nonan-4-yl (2-(4′-(2-(1H-1,2,3-triazol-4-yl)ethyl)-[1,1′-biphenyl]-4-yl)propan-2-yl)carbamate]: the IC50 with C32 human melanoma cells (setting [4]) turned out to be 3160 nM; in assay [1], 18.2 nM; in assay [2] (setting [5]), 6.08 nM; with B16 mouse melanoma cells (setting [6]), 7650 nM; in assay [3] (setting [7]), 80.8 nM.

As to `CC(C)(NC(=O)OC1CN2CCC1CC2)c1ccc(-c2ccc(CN3CCOCC3)cc2)cc1` (stereo not drawn) [Example 229, Quinuclidin-3-yl (2-(4′-(morpholinomethyl)-[1,1′-biphenyl]-4-yl)propan-2-yl)carbamate], the IC50 with C32 human melanoma cells (setting [8]) was no less than 10000 nM; in assay [1], 158 nM; in assay [2] (setting [9]), 53.2 nM; in the assay on B16 mouse melanoma cells (setting [10]), no less than 10000 nM; in assay [3] (setting [11]), 524 nM.
